What all share (type): binding
Common to all, as to parameters: KINOMEscan: ABL1(F317L)-phosphorylated / KINOMEscan: ABL1(H396P)-nonphosphorylated / KINOMEscan: ABL1(H396P)-phosphorylated / KINOMEscan: ABL1(M351T)-phosphorylated / KINOMEscan: ABL1(T315I)-phosphorylated / KINOMEscan: ABL1-nonphosphorylated / KINOMEscan: ABL1-phosphorylated / KINOMEscan: ACVR2A / KINOMEscan: ACVR2B / KINOMEscan: ADCK3 / KINOMEscan: ADCK4 / KINOMEscan: AKT1 / KINOMEscan: AKT3 / KINOMEscan: ALK / KINOMEscan: ARK5 / KINOMEscan: AURKA / KINOMEscan: AURKC / KINOMEscan: BIKE / KINOMEscan: BMPR1A / KINOMEscan: BMPR1B / KINOMEscan: BMX / KINOMEscan: BRK / KINOMEscan: BRSK1 / KINOMEscan: BRSK2 / KINOMEscan: CAMK1 / KINOMEscan: CAMK1D / KINOMEscan: CAMK1G / KINOMEscan: CAMK2A / KINOMEscan: CAMK2B / KINOMEscan: AAK1 / KINOMEscan: CAMK2D / KINOMEscan: CAMK2G / KINOMEscan: ABL1(F317I)-nonphosphorylated / KINOMEscan: ABL1(F317I)-phosphorylated / KINOMEscan: ABL1(F317L)-nonphosphorylated: unit: % Ctrl

Assay [1] has as its target T1, panel of 442 kinases (Homo sapiens, UniProt O00506).
T1 construct: purchased KINOMEscan
The note with it: kinase YSK1; compound concentration 10 µM. From the text:
(§1) We assessed the selectivity of members of this scaffold using the KINOMEscan methodology across a near comprehensive panel of 442 kinases [[18,27]].

Assay [2] addresses T2, panel of 442 kinases (Homo sapiens, UniProt Q12866).
T2 construct: purchased KINOMEscan
T2 sequence (Q12866 21-999): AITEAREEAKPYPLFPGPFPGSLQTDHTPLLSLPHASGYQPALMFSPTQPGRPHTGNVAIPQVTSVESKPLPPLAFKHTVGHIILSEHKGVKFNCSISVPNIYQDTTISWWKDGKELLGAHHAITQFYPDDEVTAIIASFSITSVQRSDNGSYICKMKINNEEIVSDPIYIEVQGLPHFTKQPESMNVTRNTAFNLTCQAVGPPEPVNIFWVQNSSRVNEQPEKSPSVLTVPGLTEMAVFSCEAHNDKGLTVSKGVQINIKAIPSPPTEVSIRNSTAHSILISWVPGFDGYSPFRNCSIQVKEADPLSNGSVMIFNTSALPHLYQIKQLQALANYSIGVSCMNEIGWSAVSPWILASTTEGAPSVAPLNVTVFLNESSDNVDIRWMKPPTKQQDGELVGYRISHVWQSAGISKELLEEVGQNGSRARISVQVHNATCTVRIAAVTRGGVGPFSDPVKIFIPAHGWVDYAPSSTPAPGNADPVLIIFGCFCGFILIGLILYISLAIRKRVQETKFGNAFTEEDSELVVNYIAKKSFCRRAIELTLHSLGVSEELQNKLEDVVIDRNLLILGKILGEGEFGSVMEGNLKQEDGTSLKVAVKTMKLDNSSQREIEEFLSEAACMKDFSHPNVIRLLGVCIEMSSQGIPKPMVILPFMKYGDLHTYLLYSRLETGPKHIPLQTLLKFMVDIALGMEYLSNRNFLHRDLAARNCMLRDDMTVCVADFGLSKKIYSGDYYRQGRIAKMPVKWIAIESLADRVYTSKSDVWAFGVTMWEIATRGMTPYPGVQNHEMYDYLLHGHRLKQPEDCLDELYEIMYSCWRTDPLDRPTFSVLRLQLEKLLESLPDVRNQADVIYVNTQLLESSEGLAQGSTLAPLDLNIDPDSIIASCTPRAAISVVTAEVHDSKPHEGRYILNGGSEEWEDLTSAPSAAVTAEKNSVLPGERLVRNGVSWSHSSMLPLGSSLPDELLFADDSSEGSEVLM
Conditions: Compound Concentration 10 µM.
Text: as §1

For assay [3], the target named is T3, panel of 442 kinases (Homo sapiens, UniProt Q9NSY1).
T3 construct: purchased KINOMEscan
Conditions: Compound Concentration 10 µM.
Text: as §1

T1 sequence (O00506 whole entry): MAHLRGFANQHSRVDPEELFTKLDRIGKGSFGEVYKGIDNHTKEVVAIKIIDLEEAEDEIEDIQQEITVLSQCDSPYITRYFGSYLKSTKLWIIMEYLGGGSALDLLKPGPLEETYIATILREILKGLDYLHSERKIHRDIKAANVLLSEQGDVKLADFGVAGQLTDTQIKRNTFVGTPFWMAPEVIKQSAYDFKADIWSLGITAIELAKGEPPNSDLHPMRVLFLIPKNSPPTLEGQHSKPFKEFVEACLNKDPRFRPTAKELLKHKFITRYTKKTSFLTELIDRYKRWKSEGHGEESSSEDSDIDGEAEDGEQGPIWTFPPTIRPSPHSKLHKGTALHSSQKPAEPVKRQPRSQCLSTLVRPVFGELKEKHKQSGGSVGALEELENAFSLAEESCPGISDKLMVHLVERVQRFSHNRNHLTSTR
T3 sequence (Q9NSY1 whole entry): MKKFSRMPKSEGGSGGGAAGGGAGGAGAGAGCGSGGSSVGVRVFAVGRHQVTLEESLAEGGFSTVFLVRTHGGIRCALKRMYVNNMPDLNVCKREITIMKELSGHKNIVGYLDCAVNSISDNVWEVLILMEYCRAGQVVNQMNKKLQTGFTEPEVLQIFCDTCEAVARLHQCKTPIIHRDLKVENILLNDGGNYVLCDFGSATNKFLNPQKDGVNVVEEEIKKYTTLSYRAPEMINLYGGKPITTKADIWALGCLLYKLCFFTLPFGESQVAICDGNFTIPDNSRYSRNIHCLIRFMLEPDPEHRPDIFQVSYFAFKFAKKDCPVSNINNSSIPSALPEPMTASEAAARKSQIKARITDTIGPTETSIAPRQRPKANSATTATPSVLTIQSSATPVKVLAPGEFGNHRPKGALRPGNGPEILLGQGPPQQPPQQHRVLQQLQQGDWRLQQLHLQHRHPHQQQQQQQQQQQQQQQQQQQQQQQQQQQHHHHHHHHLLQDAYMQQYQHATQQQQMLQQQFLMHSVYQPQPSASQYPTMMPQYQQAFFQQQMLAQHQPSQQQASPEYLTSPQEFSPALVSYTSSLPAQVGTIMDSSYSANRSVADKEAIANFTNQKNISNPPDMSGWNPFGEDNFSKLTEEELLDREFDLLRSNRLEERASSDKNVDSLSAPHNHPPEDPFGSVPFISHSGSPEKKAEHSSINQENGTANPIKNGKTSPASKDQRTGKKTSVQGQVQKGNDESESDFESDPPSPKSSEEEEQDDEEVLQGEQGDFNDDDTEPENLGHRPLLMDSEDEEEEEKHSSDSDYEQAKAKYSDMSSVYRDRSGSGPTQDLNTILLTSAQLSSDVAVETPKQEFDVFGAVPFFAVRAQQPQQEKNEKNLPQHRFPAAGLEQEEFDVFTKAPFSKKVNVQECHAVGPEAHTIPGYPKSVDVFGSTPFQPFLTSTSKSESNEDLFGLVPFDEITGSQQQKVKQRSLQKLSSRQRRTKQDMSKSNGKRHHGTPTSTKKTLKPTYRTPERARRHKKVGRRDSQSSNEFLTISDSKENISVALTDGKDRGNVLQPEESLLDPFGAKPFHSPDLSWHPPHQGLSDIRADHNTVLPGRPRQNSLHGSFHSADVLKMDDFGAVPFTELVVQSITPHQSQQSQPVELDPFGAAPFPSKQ

For `COc1cc(C(=O)N2CCC(N3CCN(C)CC3)CC2)ccc1Nc1ncc2c(n1)N(C1CCCC1)c1ccccc1C(=O)N2C` [Compound 25, 11-cyclopentyl-2-((2-methoxy-4-(4-(4-methylpiperazin-1-yl)piperidine-1-carbonyl)phenyl)amino)-5-methyl-5H-benzo[e]pyrimido[5,4-b][1,4]diazepin-6(11H)-one], the “% Ctrl, YSK1” value in assay [1] stood at 66 % Ctrl. The “KINOMEscan: MERTK” value in assay [2] was 100. The “KINOMEscan: BIKE” value in assay [3] is 93.
Turning to `COc1cc(C(=O)N2CCC(N3CCN(C)CC3)CC2)ccc1Nc1ncc2c(n1)N1CCc3cccc(c31)C(=O)N2C` [Compound 24], the “% Ctrl, YSK1” value in assay [1] was 60 % Ctrl. Besides, in assay [3], the “KINOMEscan: BIKE” value is recorded as 73.
Turning to `COc1cc(C(=O)N2CCC(N3CCN(C)CC3)CC2)ccc1Nc1ncc2c(n1)N(C)c1ccccc1C(=O)N2C` [15 (LRRK2-IN-1)], the “% Ctrl, YSK1” value in assay [1] came to 68 % Ctrl. The “KINOMEscan: MERTK” value in assay [2] came out at 100. Further, the “KINOMEscan: BIKE” value in assay [3] turned out to be 100.
On to `CCOc1cc(C(=O)N2CCC(N3CCN(C)CC3)CC2)ccc1Nc1ncc2c(n1)N(C1CCCC1)c1ccccc1C(=O)N2C` [Compound 26], for which the “% Ctrl, YSK1” value in assay [1] came out at 90 % Ctrl. Further, the “KINOMEscan: MERTK” value in assay [2] amounted to 100. Further, in assay [3], the “KINOMEscan: BIKE” value amounted to 100.

The values are drawn from paper PMC3914206.
